Source: patent US9546157B2, “Asymmetric piperidinyl-substituted ureas as medicines” (Helsinn Healthcare SA, priority 2014, dated 2017)

Tests used:
GHSR1a [1] = target: T1, GHSR1a (Homo sapiens, UniProt Q92847); assay: Calcium FLIPR assay, GHSR-1a antagonism (reduction of ghrelin response); type: cell-based; settings: HEK293/GHSR1a cells, ghrelin 10 nM
T1 construct: expressed in transfected cells; host or cells: HEK293
In short: (§1)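 Relative fluorescence read-out (FLIPR) of intracellular calcium in HEK293/GHSR1a cells. For antagonist mode, compound and 10 nM ghrelin were co-added at t=20 sec, and inhibition of the ghrelin response over 2 minutes gave IC50. Agonist mode: compound alone at t=20 sec, response tracked 2 minutes; EC50 from dose-response.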

GHSR1a [2] = target: T1, GHSR1a; assay: Calcium FLIPR assay, GHSR-1a agonism; type: cell-based; set-up: Emax: unit not given here; settings: HEK293/GHSR1a cells
In short: as §1

T1 sequence (Q92847 whole entry): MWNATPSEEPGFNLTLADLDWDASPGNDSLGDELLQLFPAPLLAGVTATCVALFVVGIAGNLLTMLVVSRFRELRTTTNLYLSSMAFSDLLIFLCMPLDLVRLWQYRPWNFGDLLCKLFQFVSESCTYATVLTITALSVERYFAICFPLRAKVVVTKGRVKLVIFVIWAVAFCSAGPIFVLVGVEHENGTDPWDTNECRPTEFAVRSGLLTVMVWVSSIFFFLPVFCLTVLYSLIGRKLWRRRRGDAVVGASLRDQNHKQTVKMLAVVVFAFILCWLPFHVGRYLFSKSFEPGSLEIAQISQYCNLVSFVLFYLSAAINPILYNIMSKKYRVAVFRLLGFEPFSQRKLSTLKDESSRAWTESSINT

With CC(NC(=O)N(C)C1CCN(C)CC1)c1ccc(C#CC2CC2)c(Cl)c1F (centres unmarked) [Compound H0855, 3-(1-(3-chloro-4-(cycloprropylethynyl)-2-fluorophenyl)ethyl)-1-methyl-1-(1-methylpiperidin-4-yl)urea] the IC50 (GHSR1a [1]) was 256 nM and the EC50 (GHSR1a [2]) was > 30000 nM.

With CC(C)C#Cc1ccc(C(C)NC(=O)N(C)C2CCN(C)CC2)c(Cl)c1Cl (centres unmarked) [Compound H0852, 3-(1-(2,3-dichloro-4-(3-methylbut-1-yn-1-yl)phenyl)ethyl)-1-methyl-1-(1-methylpiperidin-4-yl)urea] the IC50 (GHSR1a [1]) was 22 nM, the EC50 (GHSR1a [2]) was 18 nM and the Emax (GHSR1a [2]) was 1683.

C#Cc1ccc(C(CC2CC2)NC(=O)N(OCC)C2CCN(C)CC2)c(Cl)c1Cl (centres unmarked) [Compound H0744, 3-(2-cyclopropyl-1-(2,3-dichloro-4-ethynylphenyl)ethyl)-1-ethoxy-1-(1-methylpiperidin-4-yl)urea] was tested, and the IC50 (GHSR1a [1]) was 33 nM, the EC50 (GHSR1a [2]) was 45 nM and the Emax (GHSR1a [2]) was 3536.

CC(NC(=O)N(C)C1CCN(C)CC1)c1ccc(-c2ccc[nH]2)c(Cl)c1Cl (centres unmarked) [Compound H0535, 3-(1-(2,3-dichloro-4-(1H-pyrrol-2-yl)phenyl)ethyl)-1-methyl-1-(1-methylpiperidin-4-yl)urea] gave an IC50 (GHSR1a [1]) of 34 nM and an EC50 (GHSR1a [2]) of 4 nM.

In the case of CC(NC(=O)N(C)C1CCN(C)CC1)c1ccc(-c2cccnc2)c2ccccc12 (centres unmarked) [Compound H0577, 1-methyl-1-(1-methylpiperidin-4-yl)-3-(1-(4-(pyridin-3-yl)naphthalen-1-yl)ethyl)urea], the IC50 (GHSR1a [1]) is reported as 233 nM and the EC50 (GHSR1a [2]) is reported as > 30000 nM.

For CC(NC(=O)N(C)C1CCN(C)CC1)c1ccc(-c2cnc(NC3CC3)nc2)c(Cl)c1Cl (centres unmarked) [Compound H0805, 3-(1-(2,3-dichloro-4-(2-(cyclopropylamino)pyrimidin-5-yl)phenyl)ethyl)-1-methyl-1-(1-methylpiperidin-4-yl)urea], the IC50 (GHSR1a [1]) was 4 nM, the EC50 (GHSR1a [2]) was 9 nM and the Emax (GHSR1a [2]) was 5433.

In the case of CC(NC(=O)N(C)C1CCN(C)CC1)c1ccc(C2OCCO2)c(Cl)c1Cl (centres unmarked) [Compound H0645, 3-(1-(2,3-dichloro-4-(1,3-dioxolan-2-yl)phenyl)ethyl)-1-methyl-1-(1-methylpiperidin-4-yl)urea], the IC50 (GHSR1a [1]) is reported as 133 nM, the EC50 (GHSR1a [2]) is reported as 287 nM and the Emax (GHSR1a [2]) is reported as 2761.

CC(NC(=O)N(C)C1CCN(C)CC1)c1ccc(-c2cncc(Br)c2)c(Cl)c1Cl (centres unmarked) [Compound H0695, 3-(1-(4-(5-bromopyridin-3-yl)-2,3-dichlorophenyl)ethyl)-1-methyl-1-(1-methylpiperidin-4-yl)urea] was tested, and the IC50 (GHSR1a [1]) was 78 nM and the EC50 (GHSR1a [2]) was 5 nM.

In the case of CCON(C(=O)NC(CC1CC1)c1ccc(-c2cnccn2)c(Cl)c1Cl)C1CCN(C)CC1 (centres unmarked) [Compound H0752, 3-(2-cyclopropyl-1-(2,3-dichloro-4-(pyrazin-2-yl)phenyl)ethyl)-1-ethoxy-1-(1-methylpiperidin-4-yl)urea], the IC50 (GHSR1a [1]) is reported as 100 nM and the EC50 (GHSR1a [2]) is reported as > 30000 nM.

CC(NC(=O)N(C)C1CCN(C)CC1)c1ccc(-c2nnco2)c(Cl)c1Cl (centres unmarked) [Compound H0595, 3-(1-(2,3-dichloro-4-(1,3,4-oxadiazol-2-yl)phenyl)ethyl)-1-methyl-1-(1-methylpiperidin-4-yl)urea] was tested, and the IC50 (GHSR1a [1]) was 28 nM and the EC50 (GHSR1a [2]) was 43 nM.

In the case of COc1cc(OC)cc(-c2ccc(C(C)NC(=O)N(C)C3CCN(C)CC3)c(Cl)c2Cl)c1 (centres unmarked) [Compound H0611, 3-(1-(2,3-dichloro-3′,5′-dimethoxy-[1,1′-biphenyl]-4-yl)ethyl)-1-methyl-1-(1-methylpiperidin-4-yl)urea], the IC50 (GHSR1a [1]) is reported as 2300 nM and the EC50 (GHSR1a [2]) is reported as > 30000 nM.

For CC(NC(=O)N(C)C1CCN(C)CC1)c1ccc(-c2ccncn2)c(Cl)c1Cl (centres unmarked) [Compound H0768, 3-(1-(2,3-dichloro-4-(pyrimidin-4-yl)phenyl)ethyl)-1-methyl-1-(1-methylpiperidin-4-yl)urea], the IC50 (GHSR1a [1]) was 279 nM and the EC50 (GHSR1a [2]) was > 30000 nM.

CC(=O)Nc1cncc(-c2ccc(C(C)NC(=O)N(C)C3CCN(C)CC3)c(Cl)c2Cl)c1 (centres unmarked) [Compound H0712, N-(5-(2,3-dichloro-4-(1-(3-methyl-3-(1-methylpiperidin-4-yl)ureido)ethyl)phenyl)pyridin-3-yl)acetamide] was tested, and the IC50 (GHSR1a [1]) was 420 nM, the EC50 (GHSR1a [2]) was 220 nM and the Emax (GHSR1a [2]) was 1962.

For CN1CCC(N(C)C(=O)NC2(c3ccc(-c4cccs4)c(Cl)c3Cl)CC2)CC1 [Compound H0672, 3-(1-(2,3-dichloro-4-(thiophen-2-yl)phenyl)cyclopropyl)-1-methyl-1-(1-methylpiperidin-4-yl)urea], the IC50 (GHSR1a [1]) was > 1 nM and the EC50 (GHSR1a [2]) was > 30000 nM.

CC(NC(=O)C(C)N1CCN(C)CC1)c1ccc(-c2cnccn2)c(Cl)c1Cl (centres unmarked) [Compound H0853, N-(1-(2,3-dichloro-4-(pyrazin-2-yl)phenyl)ethyl)-2-(4-methylpiperazin-1-yl)propanamide] was tested, and the IC50 (GHSR1a [1]) was 1500 nM and the EC50 (GHSR1a [2]) was > 30000 nM.

In the case of CC#Cc1ccc(C(C)NC(=O)N(C)C2CCN(C)CC2)c(Cl)c1Cl (centres unmarked) [Compound H0832, 3-(1-(2,3-dichloro-4-(prop-1-yn-1-yl)phenyl)ethyl)-1-methyl-1-(1-methylpiperidin-4-yl)urea], the IC50 (GHSR1a [1]) is reported as 11 nM and the EC50 (GHSR1a [2]) is reported as > 30000 nM.

Work on CC(NC(=O)N(C)C1CCN(C)CC1)c1ccc(-c2csc(N)n2)c(Cl)c1Cl (centres unmarked) [Compound H0794, 3-(1-(4-(2-aminothiazol-4-yl)-2,3-dichlorophenyl)ethyl)-1-methyl-1-(1-methylpiperidin-4-yl)urea] yielded an IC50 (GHSR1a [1]) of 3 nM, an EC50 (GHSR1a [2]) of 10 nM and an Emax (GHSR1a [2]) of 4435.

CC(NC(=O)N(C)C1CCN(C)CC1)c1ccc(-c2cncc(C3CC3)c2)c(Cl)c1Cl (centres unmarked) [Compound H0765, 3-(1-(2,3-dichloro-4-(5-cyclopropylpyridin-3-yl)phenyl)ethyl)-1-methyl-1-(1-methylpiperidin-4-yl)urea] was tested, and the IC50 (GHSR1a [1]) was 61 nM, the EC50 (GHSR1a [2]) was 137 nM and the Emax (GHSR1a [2]) was 2810.

CC(NC(=O)N(C)C1CCN(C)CC1)c1ccc(-c2cccc(F)c2)c(Cl)c1Cl (centres unmarked) [Compound H0810, 3-(1-(2,3-dichloro-3′-fluoro-[1,1′-biphenyl]-4-yl)ethyl)-1-methyl-1-(1-methylpiperidin-4-yl)urea] gave an IC50 (GHSR1a [1]) of 20 nM, an EC50 (GHSR1a [2]) of 22 nM and an Emax (GHSR1a [2]) of 2339.

CC(NC(=O)N(C)C1CCN(C)CC1)c1ccc(-c2nc(C3CC3)no2)c(Cl)c1Cl (centres unmarked) [Compound H0851, 3-(1-(2,3-dichloro-4-(3-cyclopropyl-1,2,4-oxadiazol-5-yl)phenyl)ethyl)-1-methyl-1-(1-methylpiperidin-4-yl)urea] showed an IC50 (GHSR1a [1]) of 11 nM, an EC50 (GHSR1a [2]) of 6 nM and an Emax (GHSR1a [2]) of 3320.

With CC(NC(=O)N(C)C1CCN(C)CC1)c1ccc(-c2cncc(CF)c2)c(Cl)c1Cl (centres unmarked) [Compound H0638, 3-(1-(2,3-dichloro-4-(5-(fluoromethyl)pyridin-3-yl)phenyl)ethyl)-1-methyl-1-(1-methylpiperidin-4-yl)urea] the IC50 (GHSR1a [1]) was 57 nM and the EC50 (GHSR1a [2]) was > 30000 nM.

With CC(NC(=O)N(C)C1CCN(C)CC1)c1ccc(-c2ccc(C#N)s2)c(Cl)c1Cl (centres unmarked) [Compound H0713, 3-(1-(2,3-dichloro-4-(5-cyanothiophen-2-yl)phenyl)ethyl)-1-methyl-1-(1-methylpiperidin-4-yl)urea] the IC50 (GHSR1a [1]) was 187 nM, the EC50 (GHSR1a [2]) was 29 nM and the Emax (GHSR1a [2]) was 3424.

COC(=O)C(NC(=O)N(C)C1CCN(C)CC1)c1ccc(-c2cncnc2)c(Cl)c1Cl (centres unmarked) [Compound H0662, methyl 2-(2,3-dichloro-4-(pyrimidin-5-yl)phenyl)-2-(3-methyl-3-(1-methylpiperidin-4-yl)ureido)acetate] was tested, and the IC50 (GHSR1a [1]) was ≥ 1000 nM and the EC50 (GHSR1a [2]) was > 30000 nM.

C[C@H](NC(=O)N(C)C1CCN(C)C1)c1ccc(-c2cnccn2)c(Cl)c1Cl (single isomer, unassigned) [Compound H0861] was tested, and the IC50 (GHSR1a [1]) was 189 nM and the EC50 (GHSR1a [2]) was > 30000 nM.

For CC(NC(=O)N(C)C1CCN(C)CC1)c1ccc(-c2cccc3[nH]ncc23)c(Cl)c1Cl (centres unmarked) [Compound H0513, 3-(1-(2,3-dichloro-4-(1H-indazol-4-yl)phenyl)ethyl)-1-methyl-1-(1-methylpiperidin-4-yl)urea], the IC50 (GHSR1a [1]) was 544 nM and the EC50 (GHSR1a [2]) was > 30000 nM.

With CC(NC(=O)N(C)C1CCN(C)CC1)c1ccc(-c2cncc(N)n2)c(Cl)c1Cl (centres unmarked) [Compound H0780, 3-(1-(4-(6-aminopyrazin-2-yl)-2,3-dichlorophenyl)ethyl)-1-methyl-1-(1-methylpiperidin-4-yl)urea] the IC50 (GHSR1a [1]) was 63 nM and the EC50 (GHSR1a [2]) was > 30000 nM.

Work on CC(NC(=O)N(C)C1CCN(C)CC1)c1ccc(C#N)c2ccccc12 (centres unmarked) [Compound H0790, 3-(1-(4-cyanonaphthalen-1-yl)ethyl)-1-methyl-1-(1-methylpiperidin-4-yl)urea] yielded an IC50 (GHSR1a [1]) of 35 nM, an EC50 (GHSR1a [2]) of 32 nM and an Emax (GHSR1a [2]) of 2810.

For CC(NC(=O)N(C)C1CCCCC1)c1ccc(-c2cncnc2)c(Cl)c1Cl (centres unmarked) [Compound H0584, 1-cyclohexyl-3-(1-(2,3-dichloro-4-(pyrimidin-5-yl)phenyl)ethyl)-1-methylurea], the IC50 (GHSR1a [1]) was 1100 nM and the EC50 (GHSR1a [2]) was > 30000 nM.

Compound CC(NC(=O)N(C)C1CCN(C)CC1)c1ccc(-c2cnc(C3CC3)nc2)c(Cl)c1Cl (centres unmarked) [Compound H0854, 3-(1-(2,3-dichloro-4-(2-cyclopropylpyrimidin-5-yl)phenyl)ethyl)-1-methyl-1-(1-methylpiperidin-4-yl)urea] has an IC50 (GHSR1a [1]) of 65 nM, an EC50 (GHSR1a [2]) of 24 nM and an Emax (GHSR1a [2]) of 3246.

For CC(NC(=O)N(C)C1CCN(C)CC1)c1ccc(-c2cccnn2)c(Cl)c1Cl (centres unmarked) [Compound H0729, 3-(1-(2,3-dichloro-4-(pyridazin-3-yl)phenyl)ethyl)-1-methyl-1-(1-methylpiperidin-4-yl)urea], the IC50 (GHSR1a [1]) was 100 nM, the EC50 (GHSR1a [2]) was 95 nM and the Emax (GHSR1a [2]) was 2818.

With CC(NC(=O)N(C)C1CCN(C)CC1)c1ccc(-c2cncc(/C=N/O)c2)c(Cl)c1Cl (centres unmarked) [Compound H0646, (E)-3-(1-(2,3-dichloro-4-(5-((hydroxyimino)methyl)pyridin-3-yl)phenyl)ethyl)-1-methyl-1-(1-methylpiperidin-4-yl)urea] the IC50 (GHSR1a [1]) was 541 nM and the EC50 (GHSR1a [2]) was > 30000 nM.

With CC(NC(=O)N(C)C1CCN(C)CC1)c1ccc(-c2cncc(-c3ccsc3)c2)c(Cl)c1Cl (centres unmarked) [Compound H0747, 3-(1-(2,3-dichloro-4-(5-(thiophen-3-yl)pyridin-3-yl)phenyl)ethyl)-1-methyl-1-(1-methylpiperidin-4-yl)urea] the IC50 (GHSR1a [1]) was 84 nM and the EC50 (GHSR1a [2]) was > 30000 nM.
